Measured values published in patent US20070179085A1, “MODULATION OF RHAMM-CAVEOLIN/LIPID RAFT INTERACTIONS TO AFFECT DEVELOPMENT, RESPONSES TO TISSUE INJURY, ANGIOGENESIS, TUMORIGENESIS, METASTASIS AND GROWTH FACTOR/CYTOKINE RESPONSES” (priority 2005, published 2007).

Legend:
[1] = test system: male Sprague-Dawley rats; assay: Intratracheal bleomycin lung injury: macrophage accumulation (ED1) and lung architecture; type: in vivo, rat
Description: The Institutional Animal Care and Utilization Committees at both The Childrenls Hospital of Philadelphia and The University of Pennsylvania School of Medicine approved all animal care procedures. Six-week old (200-250 grams) male Sprague-Dawley rats (Charles River Breeding Laboratories, N. Wilmington, Mass.) were housed in the Animal Care Facility of The Children's Hospital of Philadelphia under standard conditions with free access to food and water. Animals were anesthetized with ketamine:xylazine:atropine (16:8:0.01 mg/kg), and the trachea was visualized through a vertical incision in the neck. Using an insulin syringe, 250 μl of either LPS-free saline or 8 units/kg bleomycin sulfate (Bristol Myers Squibb, Princeton, N.J.) in 250 μl of saline was injected into the trachea. The incision was closed with surgical clips, and animals were immediately injected intraperitoneally with either 0.5 mg of anti-RHAMM antibody (R36) or non-immune IgG. Antibody treatment was continued with daily injections of 0.5 mg of either R36 or IgG for either three or six days. At least three animals were examined for each condition, including one set that remained unmanipulated throughout.
Animals were sacrificed on days 4 or 7 after injury. Bronchoalveolar lavage (BAL) was obtained (36 ml/kg, total lung capacity) and immediately centrifuged at 500 g for 10 minutes to remove all cells and cellular debris. Approximately 80-90% of lavage was routinely recovered. The cellular pellet and the supernatant were separated and frozen at −70° C. until further analysis. […]
Macrophage accumulation was quantified by immunofluorescent staining with the rat macrophage specific marker ED1 (Serotec, Raleigh, N.C.). Endogenous fluorescence was blocked with separate exposure to sodium borohydrate (1 g/10 ml PBS, 3 minutes×2) and 1 M glycine in PBS for 30 minutes. […] Three blinded, independent observers counted ED 1 positive cells per high power field to quantify macrophage accumulation in at least three lung sections from each animal. […]

[2] = test system: alveolar macrophages; assay: Timelapse cinemicrography of macrophage motility; type: cell-based, rat; conditions: macrophages from bleomycin treated animals, 4 days
Procedure: Freshly isolated cells from bronchoalveolar lavage of saline or bleomycin-treated animals were monitored for their motility using a Nikon TE-300 inverted microscope (Nikon Corp., Tokyo, Japan) to which a video camera (Hamamatsu CCD, Inc., Hamamatsu City, Japan) was attached. Cell locomotion of at least 20 cells per animal was determined using Metamorph (Universal Imaging Corp., Downingtown, Pa.). Cells were plated and maintained at 37° C. and followed for 2 hours with mean velocities calculated every 10 minutes. The effect of anti-RHAMM antibody was examined by adding 5 μg/ml of antibody per plate per treatment 15 minutes before measurement of motility. Non-immune IgG was used as a control. Each experiment was repeated at least three times.

## bleomycin sulfate
[1]; IT bleomycin, ED1 positive cells per hpf
  increase in macrophage number: 3 fold
[1]; lung sections after IT bleomycin 8 units/kg, R36 0.5 mg ip daily
  macrophage number (ED1 positive cells): 28.4±4.7 cells per hpf
[1]; tissue sections, bleomycin-injured rats
  lung architecture at seven days: influx of inflammatory cells with thickening of alveolar septae and early fibrosis
[2]
  increase in motility of alveolar macrophages: 5 fold
